# Laboratory results reported in patent US20030216569A1, “Method of making HIV protease inhibitors” (priority 1993, published 2003).
# Assays:
# HIV-1 protease = HIV-1 protease (Human immunodeficiency virus type 1 group M subtype B, UniProt P04585); assay: Fluorescence HIV-1 Protease Inhibitor Assay (Pandex); format: biochemical; set-up: made in house; host or cells: E. coli K12 L507/pHP10D (NRRL B-18560); conditions: normalized to positive control (=1.0); * = a calculated average; read-out: Fluorescence Assay IC50 in ng/mL (converted)
compound,measurement,setting,value
"CC(C)(C)NC(=O)c1ccccc1CC(O)C(CSc1ccc2ccccc2c1)NC(=O)c1ccc(N)c(O)c1 (stereo not drawn) [Example 73, [2′R-(2′R*,3′S*)]-N-t-Butyl-2-[2′-hydroxy-3′-naphth-2-ylthiomethyl-4′-aza-5′-oxo-5′-(3″-hydroxy-4″-aminophenyl)pentyl] benzamide]",melting point,,119 to 122 °C
same,IC50,HIV-1 protease,3480 nM
"CC(C)(C)NC(=O)c1ccccc1CC(O)C(CSc1ccc2ccccc2c1)NC(=O)c1cccc(N)c1 (stereo not drawn) [Example 50, [2′R-(2′R*,3′S*)]-N-t-Butyl-2-[2′-hydroxy-3′-naphth-2-ylthiomethyl-4′-aza-5′-oxo-5′-(3″-aminophenyl)pentyl] benzamide]",melting point,,101 to 102 °C
same,IC50,HIV-1 protease,222 nM
"CC(C)(C)NC(=O)c1ccccc1C[C@@H](O)[C@@H](CSc1ccc2ccccc2c1)NC(=O)c1cccc(N)c1Cl [Example 44, [2′R-(2′R*,3′S*)]-N-t-Butyl-2-[2′-hydroxy-3′-naphth-2-ylthiomethyl-4′-aza-5′-oxo-5′-(2″-chloro-3″-aminophenyl)pentyl] benzamide]",melting point,,107 to 108 °C
same,IC50,HIV-1 protease,121 nM
"CC(C)(C)NC(=O)c1ccccc1C[C@@H](O)[C@@H](CSc1ccc2ccccc2c1)NC(=O)c1cccc2c1CCN2 [Example 65, [2′R-(2′R*,3′S*)]-N-t-Butyl-2-[2′-hydroxy-3′-naphth-2-ylthiomethyl-4′-aza-5′-oxo-5′-(indolin-4″-yl)pentyl] benzamide]",melting point,,83 to 84 °C
same,IC50,HIV-1 protease,687 nM
"Cc1ccc([N+](=O)[O-])cc1C(=O)NC(CSc1ccc2ccccc2c1)C(O)Cc1ccccc1C(=O)NC(C)(C)C (stereo not drawn) [Example 68, [2′R-(2′R*,3′S*)]-N-t-Butyl-2-[2′-hydroxy-3′-naphth-2-ylthiomethyl-4′-aza-5′-oxo-5′-(3″-nitro-6″-methylphenyl)pentyl] benzamide]",melting point,,85 to 88 °C
same,IC50,HIV-1 protease,17100 nM
"CC(C)(C)NC(=O)c1ccccc1C[C@@H](O)[C@@H](CSc1ccc2ccccc2c1)NC(=O)c1cccc2ccccc12 [Example 61, [2′R-(2′R*,3′S*)]-N-t-Butyl-2-[2′-hydroxy-3′-naphth-2-ylthiomethyl-4′-aza-5′-oxo-5′-(naphth-1″-yl)pentyl] benzamide]",melting point,,92 to 95 °C
same,IC50,HIV-1 protease,2770 nM
"Cc1c(C(=O)NC(CSc2ccc3ccccc3c2)C(O)Cc2ccccc2C(=O)NC(C)(C)C)ccc(O)c1O (stereo not drawn) [Example 70, [2′R-(2′R*,3′S*)]-N-t-Butyl-2-[2′-hydroxy-3′-naphth-2-ylthiomethyl-4′-aza-5′-oxo-5′-(2″-methyl-3″,4″-dihydroxyphenyl)pentyl] benzamide]",melting point,,121 to 123 °C
same,IC50,HIV-1 protease,183 nM
"CN1CCc2c(cccc2C(=O)N[C@@H](CSc2ccc3ccccc3c2)[C@H](O)Cc2ccccc2C(=O)NC(C)(C)C)C1 (relative stereo) [Example 59, [2′R-(2′R*,3′S*)]-N-t-Butyl-2-[2′-hydroxy-3′-naphth-2-ylthiomethyl-4′-aza-5′-oxo-5′-[2-N′(methyl)-1″,2″,3″,4″-tetrahydroisoquinolin-5″-yl)pentyl] benzamide]",melting point,,110 to 113 °C
same,IC50,HIV-1 protease,587 nM
"Cc1c(C(=O)NC(CSc2ccc3ccccc3c2)C(O)Cc2ccccc2C(=O)NC(C)(C)C)cccc1[N+](=O)[O-] (stereo not drawn) [Example 67, [2′R-(2′R*,3′S*)]-N-t-Butyl-2-[2′-hydroxy-3′-naphth-2-hiomethyl-4′-aza-5′-oxo-5′-(2″-methyl-3″-nitrophenyl)pentyl] benzamide]",melting point,,80 to 81 °C
same,IC50,HIV-1 protease,927 nM
"CC(C)(C)NC(=O)c1c(CC(O)C(CSc2ccc3ccccc3c2)NC(=O)c2cccc(N)c2Cl)ccc2ccccc12 (stereo not drawn) [Example 49, [2′R-(2′R*,3′S*)]-N-t-Butyl-2-[2′-hydroxy-3′-naphth-2-ylthiomethyl-4′-aza-5′-oxo-5′-(2″-chloro-3″-aminophenyl)pentyl]-1-naphthylamide]",melting point,,110 to 112 °C
same,IC50,HIV-1 protease,137 nM
"CC(C)(C)NC(=O)c1ccccc1C[C@@H](O)[C@@H](CSc1ccc2ccccc2c1)NC(=O)c1cccc2[nH]ccc12 [Example 62, [2′R-(2′R*,3′S*)]-N-t-Butyl-2-[2′-hydroxy-3′-naphth-2-ylthiomethyl-4′-aza-5′-oxo-5′-(indol-4″-yl)pentyl] benzamide]",melting point,,109 to 110 °C
same,IC50,HIV-1 protease,350 nM
